Reference: patent publication US7354915B2 (Wyeth, priority 2003, dated 2008)
Values joined by “and” are separate entries in the source; they are usually repeats but may differ in a detail not shown here. Equal entries are not always repeated.

Experiments:
[1] = test system: rat uterine decidualization; test: Rat decidualization assay; format: in vivo; conditions: ovariectomized female Sprague-Dawley rats; for Estimated average EC50 (decidual response) / EC50 for uterine weight (decidual response): s.c.; for Estimated average EC50 (decidual response): average of dose-response curves; for EC50 for uterine weight (decidual response): once daily for seven days, individual studies (Exp)
Experimental: B. Rat decidualization assay • 1. […] Methods: • a. […] The animals were treated once daily for seven days. […] Dosing • Doses were prepared based upon mg/kg mean group body weight. In all studies, a control group receiving vehicle was included. […] The contralateral horn was not scratched and served as an unstimulated control. Approximately 24 hours following the final treatment, rats were sacrificed by CO2 asphyxiation and body weight measured. Uteri were removed and trimmed of fat. Decidualized (D-horn) and control (C-horn) uterine horns were weighed separately. • 3.
Body weight: Mean total animal body weight (default-kg)
Decidual response: [(D−C)/C]×100%

T47D cells = test: T47D cell proliferation assay (BrdU incorporation); format: cell-based
Experimental: A. T47D cell proliferation assay • 1. Objective: • Determination of progestational and antiprogestational potency was performed by using a cell proliferation assay in T47D cells. A compound's effect on DAN synthesis in T47D cells was measured. • 2. Methods: • a. Reagents: • Growth medium: DMEM:F12 (1:1) (GIBCO, BRL) supplemented with 10% (v/v) fetal bovine serum (not heat-inactivated), 100 U/mL penicillin, […] streptomycin, and 2 mM GlutaMax (GIBCO, BRL). • Treatment medium: Minimum Essential Medium (MEM) (#51200-038GIBCO, BRL) phenol red-free supplemented with 0.5% charcoal stripped fetal bovine serum, 100 U/mL penicillin, […] streptomycin, and 2 mM GlutaMax (GIBCO, BRL). • b. Cell Culture: • Stock T47 D cells were maintained in growth medium. For BrdU incorporation assay, cells were plated in 96-well plates (Falcon, Becton Dickinson Labware) at 10,000 cells/well in growth medium. […] Cell Proliferation Assay: • At the end of BrdU labeling, the medium was removed and BrdU incorporation was measured using a cell proliferation ELISA kit (#RPN 250, Amersham Life Science) according to manufacturer's instructions. […] Then 25 μL of 1 M sulfuric acid was added to each well to stop color reaction and optical density read in a plate reader at 450 nm within 5 minutes. • 3. […] EC50 or IC50 values were calculated from the retransformed values. […]

| SMILES | Estimated average EC50 (decidual response) [1] | EC50 for uterine weight (decidual response) [1] | other results |
| --- | --- | --- | --- |
| C#C[C@]1(O)CC[C@H]2[C@@H]3CCC4=CC(=O)CC[C@@H]4[C@H]3C(=C)C[C@@]21CC [3-Ketodesogestrel] | 0.10 mg/kg, s.c. | 0.10 mg/kg, s.c. and 0.06 mg/kg, s.c. and 0.11 mg/kg, s.c. | – |
| C#C[C@]1(O)CC[C@H]2[C@@H]3CCC4=CC(=O)CC[C@@H]4[C@H]3CC[C@@]21CC [Levonorgestrel] | 0.10 mg/kg, s.c. | 0.08 mg/kg, s.c. and 0.12 mg/kg, s.c. and 0.09 mg/kg, s.c. (2×) | – |
| CC(=O)O[C@]1(C(C)=O)CC[C@H]2[C@@H]3C[C@H](C)C4=CC(=O)CC[C@]4(C)[C@H]3CC[C@@]21C [MPA, medroxyprogesterone acetate] | – | 0.42 mg/kg, s.c. and 0.39 mg/kg, s.c. (2×) | – |
| CC(=O)[C@H]1CC[C@H]2[C@@H]3CCC4=CC(=O)CC[C@]4(C)[C@H]3CC[C@]12C [Progesterone] | – | 5.50 mg/kg, s.c. | – |
| CC#C[C@]1(O)CC[C@H]2[C@@H]3CCC4=CC(=O)CCC4=C3[C@@H](c3ccc(N(C)C)cc3)C[C@@]21C [RU486] | – | – | IC50 (T47D cells; read-out: IC50 (half-maximal decrease in trimegestone induced BrdU incorporation), antagonist mode in the presence of 0.03 nM trimegestone, individual studies (Exp)): 0.016 nM and 0.018 nM; IC50 for uterine weight (decrease in EC50 progesterone induced decidual response) ([1]; p.o., with progesterone 5.6 mg/kg, individual studies (Exp.)): 0.21 mg/kg, p.o. and 0.14 mg/kg, p.o. |
| C[C@H](O)C(=O)[C@@]1(C)CC[C@H]2[C@@H]3CCC4=CC(=O)CCC4=C3CC[C@@]21C [Trimegestone] | – | – | EC50 (T47D cells; agonist mode, individual studies (Exp), read-out: EC50 (half-maximal increase in BrdU incorporation)): 0.017 nM and 0.014 nM and 0.019 nM |
